PubChem BioAssay AID1963834 (Molecular Pharmacology Branch, DTP, NCI, 2024)
pIC50: −log10 of the molar value.

Test system: 873145-292-R-J1-PDC complex spheroid viability
Assay: Anticancer human tumor 873145-292-R-J1-PDC patient-derived renal clear cell carcinoma cell line growth inhibition [POLQ]
Conditions: for pIC50: curve of first compound; for viability, T/C: stronger effect = lower value
How it was run: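 Complex spheroid viability model combining PDC tumour cells with endothelial (HUVEC) and MSC stromal cells. Novobiocin, ART-558 or RP6685 were tested singly and in combination with standard and investigational anticancer drugs. Each was titrated in half-log steps from near clinical Cmax, or from 10 microM where Cmax was unknown.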

[1] = second compound 0.0316 µM, first compound 0.0316 µM
[2] = second compound 0.0316 µM, first compound 0.1 µM
[3] = second compound 0.0316 µM, first compound 0.316 µM
[4] = second compound 0.0316 µM, first compound 1 µM
[5] = second compound 0.0316 µM, first compound 3.16 µM
[6] = second compound 0.0316 µM, first compound 10 µM
[7] = second compound 0.1 µM, first compound 0.0316 µM
[8] = second compound 0.1 µM, first compound 0.1 µM
[9] = second compound 0.1 µM, first compound 0.316 µM
[10] = second compound 0.1 µM, first compound 1 µM
[11] = second compound 0.1 µM, first compound 3.16 µM
[12] = second compound 0.1 µM, first compound 10 µM
[13] = second compound 0.316 µM, first compound 0.0316 µM
[14] = second compound 0.316 µM, first compound 0.1 µM
[15] = second compound 0.316 µM, first compound 0.316 µM
[16] = second compound 0.316 µM, first compound 1 µM
[17] = second compound 0.316 µM, first compound 3.16 µM
[18] = second compound 0.316 µM, first compound 10 µM
[19] = second compound 1 µM, first compound 0.0316 µM
[20] = second compound 1 µM, first compound 0.1 µM
[21] = second compound 1 µM, first compound 0.316 µM
[22] = second compound 1 µM, first compound 1 µM
[23] = second compound 1 µM, first compound 3.16 µM
[24] = second compound 1 µM, first compound 10 µM
[25] = second compound 3.16 µM, first compound 0.0316 µM
[26] = second compound 3.16 µM, first compound 0.1 µM
[27] = second compound 3.16 µM, first compound 0.316 µM
[28] = second compound 3.16 µM, first compound 1 µM
[29] = second compound 3.16 µM, first compound 3.16 µM
[30] = second compound 3.16 µM, first compound 10 µM
[31] = second compound 10 µM, first compound 0.0316 µM
[32] = second compound 10 µM, first compound 0.1 µM
[33] = second compound 10 µM, first compound 0.316 µM
[34] = second compound 10 µM, first compound 1 µM
[35] = second compound 10 µM, first compound 3.16 µM
[36] = second compound 10 µM, first compound 10 µM
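Further: spheroids exposed to compounds for 7 days before viability readout.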
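Wherever viability, T/C is given: luminescence signal used as surrogate for viable cell content; 100% = DMSO vehicle control viability.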

With CCCS(=O)(=O)Nc1ccc(F)c(C(=O)c2c[nH]c3ncc(-c4ccc(Cl)cc4)cc23)c1F + Cc1cccc(N(C)C(=O)C2C(O)CCN2c2nc(C)cc(C(F)(F)F)c2C#N)c1 as the molecule, how does the pIC50 (second compound 0.0316 µM) read?
Its pIC50 is less than 5.00.

What about the pIC50 (second compound 0.1 µM) of the same molecule?
The pIC50 was less than 5.00.

And the pIC50 (second compound 0.316 µM)?
The pIC50 was less than 5.00.

What about the pIC50 (second compound 1 µM) of the same molecule?
Its pIC50 is less than 5.00.

What about the pIC50 (second compound 3.16 µM) of the same molecule?
The pIC50 was less than 5.00.

And the pIC50 (second compound 10 µM)?
The pIC50 was less than 5.00.

What about the viability, T/C [1] of the same molecule?
The viability, T/C was 115%.

And the viability, T/C [2]?
Its viability, T/C is 110%.

And the viability, T/C [3]?
Its viability, T/C is 113%.

What about the viability, T/C [4] of the same molecule?
The viability, T/C was 118%.

And the viability, T/C [5]?
The viability, T/C was 89.9%.

What about the viability, T/C [6] of the same molecule?
Its viability, T/C is 79.3%.

What about the viability, T/C [7] of the same molecule?
Its viability, T/C is 105%.

And the viability, T/C [8]?
The viability, T/C was 106%.

What about the viability, T/C [9] of the same molecule?
Its viability, T/C is 90.8%.

And the viability, T/C [10]?
Its viability, T/C is 121%.

And the viability, T/C [11]?
Its viability, T/C is 105%.

What about the viability, T/C [12] of the same molecule?
The viability, T/C was 67.6%.

And the viability, T/C [13]?
The viability, T/C was 117%.

What about the viability, T/C [14] of the same molecule?
Its viability, T/C is 125%.

And the viability, T/C [15]?
The viability, T/C was 94.4%.

What about the viability, T/C [16] of the same molecule?
Its viability, T/C is 112%.

What about the viability, T/C [17] of the same molecule?
The viability, T/C was 97.4%.

What about the viability, T/C [18] of the same molecule?
The viability, T/C was 80.6%.

And the viability, T/C [19]?
Its viability, T/C is 98.6%.

What about the viability, T/C [20] of the same molecule?
Its viability, T/C is 102%.

What about the viability, T/C [21] of the same molecule?
The viability, T/C was 103%.

What about the viability, T/C [22] of the same molecule?
Its viability, T/C is 106%.

What about the viability, T/C [23] of the same molecule?
Its viability, T/C is 105%.

And the viability, T/C [24]?
The viability, T/C was 68.6%.

And the viability, T/C [25]?
Its viability, T/C is 101%.

What about the viability, T/C [26] of the same molecule?
Its viability, T/C is 111%.

What about the viability, T/C [27] of the same molecule?
The viability, T/C was 109%.

What about the viability, T/C [28] of the same molecule?
Its viability, T/C is 107%.

What about the viability, T/C [29] of the same molecule?
The viability, T/C was 105%.

What about the viability, T/C [30] of the same molecule?
Its viability, T/C is 83.8%.

What about the viability, T/C [31] of the same molecule?
Its viability, T/C is 103%.

And the viability, T/C [32]?
The viability, T/C was 101%.

And the viability, T/C [33]?
The viability, T/C was 96.1%.

And the viability, T/C [34]?
Its viability, T/C is 109%.

And the viability, T/C [35]?
The viability, T/C was 96.8%.

And the viability, T/C [36]?
The viability, T/C was 81.1%.

Which results are given for COc1ccc([C@@H](O)c2cc(-c3ncnc4cc(N5CCOCC5)ccc34)c(F)cc2Cl)nn1 + Cc1cccc(N(C)C(=O)C2C(O)CCN2c2nc(C)cc(C(F)(F)F)c2C#N)c1?
pIC50 (second compound 0.0316 µM): 5.28; pIC50 (second compound 0.1 µM): 5.11; pIC50 (second compound 0.316 µM): 5.39; pIC50 (second compound 1 µM): 5.19; pIC50 (second compound 3.16 µM): 5.32; pIC50 (second compound 10 µM): 5.23; viability, T/C [1]: 107%; viability, T/C [2]: 92.1%; viability, T/C [3]: 81.5%; viability, T/C [4]: 66.6%; viability, T/C [5]: 56.9%; viability, T/C [6]: 42.5%; viability, T/C [7]: 105%; viability, T/C [8]: 95.3%; viability, T/C [9]: 75.9%; viability, T/C [10]: 73.1%; viability, T/C [11]: 64.7%; viability, T/C [12]: 44.4%; viability, T/C [13]: 96%; viability, T/C [14]: 88.5%; viability, T/C [15]: 76.3%; viability, T/C [16]: 65.2%; viability, T/C [17]: 55.8%; viability, T/C [18]: 37.5%; viability, T/C [19]: 112%; viability, T/C [20]: 88.2%; viability, T/C [21]: 85.6%; viability, T/C [22]: 72.5%; viability, T/C [23]: 56.1%; viability, T/C [24]: 45%; viability, T/C [25]: 93.5%; viability, T/C [26]: 85.1%; viability, T/C [27]: 91%; viability, T/C [28]: 71.6%; viability, T/C [29]: 57.4%; viability, T/C [30]: 39.2%; viability, T/C [31]: 96.8%; viability, T/C [32]: 82.1%; viability, T/C [33]: 80.2%; viability, T/C [34]: 71.2%; viability, T/C [35]: 58.1%; viability, T/C [36]: 42.4%

What does the source list for Cn1ncnc1[C@H]1c2n[nH]c(=O)c3cc(F)cc(c23)N[C@@H]1c1ccc(F)cc1 + Cc1cccc(N(C)C(=O)C2C(O)CCN2c2nc(C)cc(C(F)(F)F)c2C#N)c1?
pIC50 (second compound 0.0316 µM): < 7.00; pIC50 (second compound 0.1 µM): < 7.00; pIC50 (second compound 0.316 µM): < 7.00; pIC50 (second compound 1 µM): < 7.00; pIC50 (second compound 3.16 µM): < 7.00; pIC50 (second compound 10 µM): < 7.00; viability, T/C (second compound 0.0316 µM, first compound 0.000316 µM): 104%; viability, T/C (second compound 0.0316 µM, first compound 0.001 µM): 94%; viability, T/C (second compound 0.0316 µM, first compound 0.00316 µM): 102%; viability, T/C (second compound 0.0316 µM, first compound 0.01 µM): 97.5%; viability, T/C [1]: 95.7%; viability, T/C [2]: 98%; viability, T/C (second compound 0.1 µM, first compound 0.000316 µM): 104%; viability, T/C (second compound 0.1 µM, first compound 0.001 µM): 103%; viability, T/C (second compound 0.1 µM, first compound 0.00316 µM): 91.6%; viability, T/C (second compound 0.1 µM, first compound 0.01 µM): 93.9%; viability, T/C [7]: 105%; viability, T/C [8]: 88.5%; viability, T/C (second compound 0.316 µM, first compound 0.000316 µM): 112%; viability, T/C (second compound 0.316 µM, first compound 0.001 µM): 99%; viability, T/C (second compound 0.316 µM, first compound 0.00316 µM): 87.6%; viability, T/C (second compound 0.316 µM, first compound 0.01 µM): 89.6%; viability, T/C [13]: 91.7%; viability, T/C [14]: 89.3%; viability, T/C (second compound 1 µM, first compound 0.000316 µM): 102%; viability, T/C (second compound 1 µM, first compound 0.001 µM): 95.2%; viability, T/C (second compound 1 µM, first compound 0.00316 µM): 105%; viability, T/C (second compound 1 µM, first compound 0.01 µM): 97%; viability, T/C [19]: 97.7%; viability, T/C [20]: 96.3%; viability, T/C (second compound 3.16 µM, first compound 0.000316 µM): 97%; viability, T/C (second compound 3.16 µM, first compound 0.001 µM): 96.3%; viability, T/C (second compound 3.16 µM, first compound 0.00316 µM): 105%; viability, T/C (second compound 3.16 µM, first compound 0.01 µM): 93.5%; viability, T/C [25]: 99.8%; viability, T/C [26]: 91.8%; viability, T/C (second compound 10 µM, first compound 0.000316 µM): 103%; viability, T/C (second compound 10 µM, first compound 0.001 µM): 89.7%; viability, T/C (second compound 10 µM, first compound 0.00316 µM): 109%; viability, T/C (second compound 10 µM, first compound 0.01 µM): 90.3%; viability, T/C [31]: 97.8%; viability, T/C [32]: 86.9%
